Laboratory results reported in US20170190671A1, “BIS(ARYL)CATECHOL DERIVATIVES AS HERBICIDES” (E I DU PONT DE NEMOURS AND COMPANY, priority 2014, published 2017).

Experiments:
Assay type in all cases: in vivo
[1] = tested on: Italian ryegrass (Lolium multiflorum); assay: Test A postemergence; conditions: Lolium multiflorum, post-emergence, 240 h, 0 to 100 scale, read-out: Plant response rating, Ryegrass, Italian
In short: (§1)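 Injury scores run from 0, no effect, to 100, complete control, judged by eye against untreated plants roughly 10 days after treatment. Chemicals carried a surfactant in a non-phytotoxic solvent and went onto loam–sand soil preemergence or onto one- to two-leaf seedlings postemergence.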

kochia (Kochia scoparia) [2] = assay: Test A postemergence; conditions: Bassia scoparia, post-emergence, 240 h, 0 to 100 scale, read-out: Plant response rating, Kochia
In short: as §1

corn (Zea mays) = assay: Test A postemergence; conditions: Zea mays, post-emergence, 240 h, 0 to 100 scale
In short: as §1

[3] = tested on: wheat (Triticum aestivum); assay: Test A postemergence; conditions: Triticum aestivum, post-emergence, 240 h, 0 to 100 scale, read-out: Plant response rating, Wheat
In short: as §1

[4] = tested on: galium (catchweed bedstraw, Galium aparine); assay: Test A postemergence; conditions: Galium, post-emergence, 240 h, 0 to 100 scale, read-out: Plant response rating, Galium
In short: as §1

[5] = tested on: blackgrass (Alopecurus myosuroides); assay: Test A postemergence; conditions: Alopecurus myosuroides, post-emergence, 240 h, 0 to 100 scale, read-out: Plant response rating, Blackgrass
In short: as §1

[6] = tested on: giant foxtail (Setaria faberii); assay: Test A postemergence; conditions: Setaria faberi, post-emergence, 240 h, 0 to 100 scale, read-out: Plant response rating, Foxtail, Giant
In short: as §1

[7] = tested on: pigweed (Amaranthus retroflexus); assay: Test A postemergence; conditions: Amaranthus retroflexus, post-emergence, 240 h, 0 to 100 scale, read-out: Plant response rating, Pigweed
In short: as §1

[8] = tested on: ragweed (common ragweed, Ambrosia elatior); assay: Test A postemergence; conditions: Ambrosia artemisiifolia, post-emergence, 240 h, 0 to 100 scale, read-out: Plant response rating, Ragweed
In short: as §1

[9] = tested on: barnyardgrass (Echinochloa crus-galli); assay: Test A postemergence; conditions: Echinochloa crus-galli, post-emergence, 240 h, 0 to 100 scale, read-out: Plant response rating, Barnyardgrass
In short: as §1

[10] = tested on: Italian ryegrass (Lolium multiflorum); assay: Test A preemergence; conditions: Lolium multiflorum, pre-emergence, 240 h, 0 to 100 scale (0 no effect, 100 complete control), read-out: Ryegrass, Italian plant response rating
In short: as §1

kochia (Kochia scoparia) [11] = assay: Test A preemergence; conditions: Bassia scoparia, pre-emergence, 240 h, 0 to 100 scale (0 no effect, 100 complete control), read-out: Kochia plant response rating
In short: as §1

[12] = tested on: giant foxtail (Setaria faberii); assay: Test A preemergence; conditions: Setaria faberi, pre-emergence, 240 h, 0 to 100 scale (0 no effect, 100 complete control), read-out: Foxtail, Giant plant response rating
In short: as §1

[13] = tested on: pigweed (Amaranthus retroflexus); assay: Test A preemergence; conditions: Amaranthus retroflexus, pre-emergence, 240 h, 0 to 100 scale (0 no effect, 100 complete control), read-out: Pigweed plant response rating
In short: as §1

[14] = tested on: ragweed (common ragweed, Ambrosia elatior); assay: Test A preemergence; conditions: Ambrosia artemisiifolia, pre-emergence, 240 h, 0 to 100 scale (0 no effect, 100 complete control), read-out: Ragweed plant response rating
In short: as §1

[15] = tested on: barnyardgrass (Echinochloa crus-galli); assay: Test A preemergence; conditions: Echinochloa crus-galli, pre-emergence, 240 h
In short: as §1

rice (Oryza sativa) = assay: Test B flooded paddy; conditions: Oryza sativa, 336 h; 250 g ai/ha, Flood, 13 to 15 days, scale 0 (no effect) to 100 (complete control); read-out: Plant response rating, Rice
In short: (§2)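 Ratings were visual and made relative to untreated controls after 13 to 15 greenhouse days.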

[16] = tested on: sedge, umbrella (small-flower umbrella sedge, Cyperus difformis); assay: Test B flooded paddy; conditions: Cyperus difformis, 336 h; 250 g ai/ha, Flood, 13 to 15 days, scale 0 (no effect) to 100 (complete control); read-out: Plant response rating, Sedge, Umbrella
In short: as §2

[17] = tested on: ducksalad (Heteranthera limosa); assay: Test B flooded paddy; conditions: Heteranthera limosa, 336 h; 250 g ai/ha, Flood, 13 to 15 days, scale 0 (no effect) to 100 (complete control); read-out: Plant response rating, Ducksalad
In short: as §2

[18] = tested on: barnyardgrass (Echinochloa crus-galli); assay: Test B flooded paddy; conditions: Echinochloa crus-galli, 336 h; 250 g ai/ha, Flood, 13 to 15 days, scale 0 (no effect) to 100 (complete control); read-out: Plant response rating, Barnyardgrass
In short: as §2

[19] = tested on: morningglory (Ipomoea coccinea); assay: Test C postemergence; conditions: Ipomoea, post-emergence, 336 h, Postemergence, scale 0 to 100, read-out: Plant response rating, Morningglory
From the text: (§3) Seeds of plant species selected from blackgrass (Alopecurus myosuroides), Italian ryegrass (Lolium multiflorum), winter wheat (Triticum aestivum), galium (catchweed bedstraw, Galium aparine), corn (Zea mays), large (Lg) crabgrass (Digitaria sanguinalis), giant foxtail (Setaria faberii), johnsongrass (Sorghum halepense), lambsquarters (Chenopodium album), morningglory (Ipomoea coccinea), yellow nutsedge (Cyperus esculentus), pigweed (Amaranthus retroflexus), ragweed (common ragweed, Ambrosia elatior), soybean (Glycine max), barnyardgrass (Echinochloa crus-galli), oilseed rape (Brassica napus), waterhemp (common waterhemp, Amaranthus rudis), and velvetleaf (Abutilon theophrasti) were planted into a blend of loam soil and sand and treated preemergence with test chemicals formulated in a non-phytotoxic solvent mixture which included a surfactant.
(§4) At the same time, plants selected from these crop and weed species and also chickweed (common chickweed, Stellaria media), kochia (Kochia scoparia), and wild oat (Avena fatua), were planted in pots containing Redi-Earth® planting medium (Scotts Company, 14111 Scottslawn Road, Marysville, Ohio 43041) comprising spaghnum peat moss, vermiculite, wetting agent and starter nutrients and treated with postemergence applications of test chemicals formulated in the same manner. Plants ranged in height from 2 to 18 cm (1- to 4-leaf stage) for postemergence treatments. Treated plants and controls were maintained in a greenhouse for 13 to 15 days, after which time all species were compared to controls and visually evaluated. Plant response ratings, summarized in Table C, are based on a scale of 0 to 100 where 0 is no effect and 100 is complete control. A dash (-) response means no test result.

[20] = tested on: galium (catchweed bedstraw, Galium aparine); assay: Test C postemergence; conditions: Galium, post-emergence, 336 h, Postemergence, scale 0 to 100, read-out: Plant response rating, Galium
From the text: as §3, §4

[21] = tested on: giant foxtail (Setaria faberii); assay: Test C postemergence; conditions: Setaria faberi, post-emergence, 336 h, Postemergence, scale 0 to 100, read-out: Plant response rating, Foxtail, Giant
From the text: as §3, §4

For `N#Cc1cccc(Oc2ncc(Cl)cn2)c1Oc1ccc(Cl)cn1` [Compound 16, 2-[(5-chloro-2-pyridinyl)oxy]-3-[(5-chloro-2-pyrimidinyl)oxy]benzonitrile], the pest or weed control at 31 g/ha ([1]; 31 g ai/ha) was 40%, the pest or weed control at 125 g/ha ([1]; 125 g ai/ha) was 80% and the pest or weed control at 31 g/ha (kochia (Kochia scoparia) [2]; 31 g ai/ha) was 50%. It also gave a pest or weed control at 125 g/ha (kochia (Kochia scoparia) [2]; 125 g ai/ha) of 100%, a Corn plant response rating (crop injury, 0 = no effect, 100 = complete kill) at 31 g/ha (corn (Zea mays); 31 g ai/ha) of 0% and a Corn plant response rating (crop injury, 0 = no effect, 100 = complete kill) at 125 g/ha (corn (Zea mays); 125 g ai/ha) of 20%. The plant injury at 31 g/ha ([3]; 31 g ai/ha) was 0%, the plant injury at 125 g/ha ([3]; 125 g ai/ha) was 20% and the pest or weed control at 31 g/ha ([4]; 31 g ai/ha) was 90%. The pest or weed control at 125 g/ha ([4]; 125 g ai/ha) was 90%, the pest or weed control at 31 g/ha ([5]; 31 g ai/ha) was 50% and the pest or weed control at 125 g/ha ([5]; 125 g ai/ha) was 70%. For the same molecule, the pest or weed control at 31 g/ha ([6]; 31 g ai/ha) was 70%, the pest or weed control at 125 g/ha ([6]; 125 g ai/ha) was 80% and the pest or weed control at 31 g/ha ([7]; 31 g ai/ha) was 100%. The pest or weed control at 125 g/ha ([7]; 125 g ai/ha) was 100%, the pest or weed control at 31 g/ha ([8]; 31 g ai/ha) was 10% and the pest or weed control at 125 g/ha ([8]; 125 g ai/ha) was 30%. The pest or weed control at 31 g/ha ([9]; 31 g ai/ha) was 10%, the pest or weed control at 125 g/ha ([9]; 125 g ai/ha) was 70% and the pest or weed control at 31 g/ha ([10]; 31 g ai/ha) was 0%. It also gave a pest or weed control at 125 g/ha ([10]; 125 g ai/ha) of 20%, a pest or weed control at 31 g/ha (kochia (Kochia scoparia) [11]; 31 g ai/ha) of 30% and a pest or weed control at 125 g/ha (kochia (Kochia scoparia) [11]; 125 g ai/ha) of 90%. The pest or weed control at 31 g/ha ([12]; 31 g ai/ha) was 90%, the pest or weed control at 125 g/ha ([12]; 125 g ai/ha) was 100% and the pest or weed control at 31 g/ha ([13]; 31 g ai/ha) was 100%. For the same molecule, the pest or weed control at 125 g/ha ([13]; 125 g ai/ha) was 100%, the pest or weed control at 31 g/ha ([14]; 31 g ai/ha) was 0% and the pest or weed control at 125 g/ha ([14]; 125 g ai/ha) was 0%. It also gave a pest or weed control at 31 g/ha ([15]; 31 g ai/ha, 0 to 100 scale (0 no effect, 100 complete control), read-out: Barnyardgrass plant response rating) of 30%, a pest or weed control at 125 g/ha ([15]; 125 g ai/ha, 0 to 100 scale, read-out: Plant response rating, Barnyardgrass) of 70% and a plant injury at 250 g/ha (rice (Oryza sativa)) of 40%. For the same molecule, the pest or weed control at 250 g/ha [16] was 95%, the pest or weed control at 250 g/ha [17] was 90% and the pest or weed control at 250 g/ha [18] was 20%. For the same molecule, the pest or weed control at 31 g/ha ([19]; 31 g ai/ha) was 90%, the pest or weed control at 62 g/ha ([19]; 62 g ai/ha) was 90% and the pest or weed control at 125 g/ha ([19]; 125 g ai/ha) was 95%. It also gave a pest or weed control at 16 g/ha ([20]; 16 g ai/ha) of 60%, a pest or weed control at 31 g/ha ([20]; 31 g ai/ha) of 70% and a pest or weed control at 62 g/ha ([20]; 62 g ai/ha) of 70%. For the same molecule, the pest or weed control at 125 g/ha ([20]; 125 g ai/ha) was 95%, the pest or weed control at 16 g/ha ([21]; 16 g ai/ha) was 10% and the pest or weed control at 31 g/ha ([21]; 31 g ai/ha) was 15%. It also gave a pest or weed control at 62 g/ha ([21]; 62 g ai/ha) of 20% and a pest or weed control at 125 g/ha ([21]; 125 g ai/ha) of 35%.
